Results taken from PMC9479156 (Frontiers in Pharmacology, 2022).
Where two headings read alike, the source gives them in different places.

Experiments:
[1] = tested on: Pf; parameters: method as in Lanfranchi et al., 2012; settings: tritiated hypoxanthine assay; ref Lanfranchi et al., 2012; cited from earlier work
[2] = tested on: multidrug resistant Pf K1 strain; settings: tritiated hypoxanthine assay; ref Figueiredo et al., 1998; Li et al., 2019; cited from earlier work
[3] = tested on: chloroquine sensitive Pf NF54 strain; settings: tritiated hypoxanthine assay; ref Figueiredo et al., 1998; Li et al., 2019; cited from earlier work
[4] = tested on: asexual blood stage P. falciparum NF54 (drug sensitive); test: SYBR Green I proliferation assay, asexual blood stage Pf NF54; format: cell-based; settings: Plasmodium falciparum, NF54; asexual blood stage, SYBR Green I, 96 h, mean ± SEM; this study; read-out: IC50 NF54
Experimental: In vitro cultivation of asexual and gametocyte P. falciparum parasites: P. falciparum asexual blood stage parasites were cultivated in human erythrocytes in RPMI-1640 media supplemented with AlbuMax II under sterile conditions and in a hypoxic environment (90% N2, 5% CO2, and 5% O2) at 37°C as described previously ([Coertzen et al., 2018]; [Wong et al., 2019]). Gametocytes were produced from asexual blood stage parasites in a stage-specific manner through induction of cellular stress as described previously ([Reader et al., 2015]; [Coertzen et al., 2018]; [Wong et al., 2019]; [Reader et al., 2022]).
DHA, artesunate, artemether, chloroquine (CQ), and methylene blue (MB) were used as reference drugs. All assay conditions are as previously described ([Coertzen et al., 2018]; [Wong et al., 2019]). […] Dose-responses were determined using a 2-fold serial drug dilution on in vitro 95% ring-stage intraerythrocytic Pf parasites (1% parasitemia, 1% hematocrit) at 37°C under 90% N2, 5% CO2, and 5% O2 atmospheric conditions, detecting SYBR green I fluorescence as a marker for parasite proliferation following a 96 h drug treatment ([Smilkstein et al., 2004]; [Verlinden et al., 2011]). Activity against the Pf drug-sensitive NF54 strain and the multi drug-resistant K1 (resistant to CQ, quinine, pyrimethamine, and cycloguanil), and W2 (resistant to CQ, quinine, pyrimethamine, and cycloguanil) strains was evaluated. […] Data analysis was performed using GraphPad Prism (version 6) software, intra-assay variability was monitored with Z-factors, and acceptable inter-assay reproducibility was determined from the percent coefficient of variation (CV) ([Reader et al., 2015]). […]
Activity was determined using the SYBR Green I based fluorescence assay on asexual blood stages of the NF54 (drug sensitive), K1 and W2 (drug resistant) strains of P. falciparum. […] Also included in Table 1 for direct comparison of activities against celastrol are data for the internal reference standards MB and artemisone recorded at the same time as for celastrol. […]

[5] = tested on: asexual blood stage Pf NF54; test: Fixed-ratio isobole drug combination assay (SYBR Green I); format: cell-based, Plasmodium falciparum
Experimental: The in vitro interactions of celastrol with artemisone and MB was determined using a fixed-ratio isobole analysis on Pf NF54 asexual parasites (SYBR Green I-based fluorescence). […] The fractional inhibitory concentration (FIC) for each drug in the combination was calculated as follows:
FIC = IC50 of drug A in combination with drug B/IC50 of drug A
The paired FIC values for the drugs in each combination were linearly plotted to provide the isobologram. The ΣFIC of FIC of drug A in combination with FIC of drug B was determined by calculating the mean FIC value, to obtain the representative FIC value for the drug combination. Data obtained were analysed in Excel, and sigmoidal dose-response curves and isobolograms were plotted using GraphPad 6.0. Experiments were performed in triplicate, and repeated 3 times.
As previously recorded for each of artemiside and artemisone in combination with MB ([Coertzen et al., 2018]), drug-drug interactions were monitored through evaluation of fractional inhibitory concentration (FIC) as determined by isobolograms. A mean ΣFIC<1.0 represents a synergistic interaction, >1.3 an antagonistic interaction and ΣFIC = 1 an indifferent or additive interaction. Isobologram analysis of the combinations of each of artemisone and MB in combination with celastrol was performed against the asexual stages of Pf NF54 using the SYBR Green I based assay. In Table 3 are shown the calculated FIC values for the independent combinations at each ratio as well as the ∑FIC values for each combination. In Figure 5 are presented the independent isoboles for each drug combination.

[6] = tested on: immature stage II-III P. falciparum NF54 gametocytes; parameters: method as in Coertzen et al., 2018, Wong et al., 2019; settings: NF54 gametocytes, luciferase, 48 h, mean ± SEM; ref Coertzen et al., 2018, Wong et al., 2019; read-out: Immature stage II-III (luc 48 h) IC50; cited from earlier work
[7] = tested on: asexual blood stage P. falciparum W2 (multidrug resistant); parameters: method as in Coertzen et al., 2018; Wong et al., 2019; settings: asexual blood stage, SYBR Green I, mean ± SEM; ref Coertzen et al., 2018; Wong et al., 2019; cited from earlier work
[8] = tested on: late stage IV-V P. falciparum NF54 gametocytes; parameters: method as in Coertzen et al., 2018, Wong et al., 2019; settings: NF54 gametocytes, luciferase, 72 h, mean ± SEM; ref Coertzen et al., 2018, Wong et al., 2019; read-out: Late stage IV-V (luc 72 h) IC50; cited from earlier work
[9] = tested on: asexual blood stage P. falciparum K1 (multidrug resistant); settings: asexual blood stage, SYBR Green I, mean ± SEM; ref Coertzen et al., 2018; Wong et al., 2019; cited from earlier work
[10] = tested on: asexual blood stage P. falciparum NF54 (drug sensitive); parameters: method as in Coertzen et al., 2018; Wong et al., 2019; settings: SYBR Green I, mean ± SEM, ref Coertzen et al., 2018, Wong et al., 2019; cited from earlier work

For `CC1=CC(=O)c2ccccc2C1=O` [menadione], the IC50 [1] is listed as 9600 to 12000 nM.

In the case of `COC(=O)[C@]1(C)CC[C@]2(C)CC[C@]3(C)C4=CC=C5C(=CC(=O)C(O)=C5C)[C@]4(C)CC[C@@]3(C)[C@@H]2C1` [Pristimerin, pristimerin, reference compound], the IC50 [2] is given as 409 nM and the IC50 [3] is given as 583 nM.

With `CN(C)c1ccc2nc3ccc(=[N+](C)C)cc-3sc2c1` [Methylene Blue, methylene blue, reference compound] the IC50 [4] was 5.9 ± 0.8 nM, the FIC ([5]; MB:celastrol drug ratio 20:80, Pf NF54) was 0.70 and the FIC ([5]; MB:celastrol drug ratio 40:60, Pf NF54) was 0.67. The FIC ([5]; MB:celastrol drug ratio 60:40, Pf NF54) was 0.66, the FIC ([5]; MB:celastrol drug ratio 80:20, Pf NF54) was 0.79 and the IC50 [6] was 95 ± 11.3 nM. For the same compound, the IC50 [7] was 5.13 ± 0.31 nM, the IC50 [8] was 143 ± 16.7 nM and the IC50 [9] was 6.45 ± 0.3 nM. The IC50 [10] was 5 nM.
